These results are taken from patent EP1267826B1, “PHARMACEUTICAL COMPOSITION FOR TREATMENT OF MUCOSAL EPITHELIAL ULCERATION AND/OR EROSION” (LIF-HLAUP EHF. BIO-GELS PHARMACEUTICALS INC., priority 1999, dated 2001).

Experiment [1] deals with MMP's. The note with it: literature (Burns et al. 1989; Gabler et al. 1991); cited from earlier work.
Experiment [2] deals with T1, MMP-9 (Homo sapiens, UniProt P14780).
T1 construct: known to secrete a large amount of several matrix-degrading enzymes, among which are MMP-2 and MMP-9; endogenous in cells; host or cells: HT-1080 human fibrosarcoma cells (secreted enzyme)
T1 sequence (P14780 94-707): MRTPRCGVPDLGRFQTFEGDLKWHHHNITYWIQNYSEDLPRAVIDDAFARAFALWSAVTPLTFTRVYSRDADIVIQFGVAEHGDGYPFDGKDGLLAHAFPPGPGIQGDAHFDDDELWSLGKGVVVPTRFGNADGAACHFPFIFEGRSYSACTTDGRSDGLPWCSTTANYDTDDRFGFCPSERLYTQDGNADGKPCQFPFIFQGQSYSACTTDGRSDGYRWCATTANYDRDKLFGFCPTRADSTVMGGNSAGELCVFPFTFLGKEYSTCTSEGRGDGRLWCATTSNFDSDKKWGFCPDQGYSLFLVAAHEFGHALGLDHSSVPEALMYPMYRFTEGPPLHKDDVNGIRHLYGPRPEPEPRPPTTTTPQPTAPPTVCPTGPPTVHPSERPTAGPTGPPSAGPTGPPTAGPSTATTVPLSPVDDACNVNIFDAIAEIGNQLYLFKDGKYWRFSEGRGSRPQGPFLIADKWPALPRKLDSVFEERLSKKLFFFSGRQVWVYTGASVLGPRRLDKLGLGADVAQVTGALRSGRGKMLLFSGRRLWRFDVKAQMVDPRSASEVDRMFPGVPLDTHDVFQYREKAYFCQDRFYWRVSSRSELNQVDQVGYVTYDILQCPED
Briefly: Zymography, inhibition of gelatinolytic activity. The note with it: MMP-9 acquired from HT-1080; result determined visually; read-out: concentration at which complete inhibition was achieved. It is filed as biochemical. The source says:
(§1) In checking the inhibition of the doxycycline on MMP's a Zymography method was used (Mackay et al., Cancer Res., 50(18), 5997-6001, 1990).
(§2) Cell culture: HT-1080 is human fibrosarcoma cell line which is known to secrete a large amount of several matrix-degrading enzymes, among which are MMP-2 and MMP-9 (Kawamata et al., International Journal of Oncology, 13, 699-704, 1998).

In experiment [3] the target is T2, MMP-2 (Homo sapiens, UniProt P08253).
T2 construct: known to secrete a large amount of several matrix-degrading enzymes, among which are MMP-2 and MMP-9; endogenous in cells; host or cells: HT-1080 human fibrosarcoma cells (secreted enzyme)
T2 sequence (P08253 110-660): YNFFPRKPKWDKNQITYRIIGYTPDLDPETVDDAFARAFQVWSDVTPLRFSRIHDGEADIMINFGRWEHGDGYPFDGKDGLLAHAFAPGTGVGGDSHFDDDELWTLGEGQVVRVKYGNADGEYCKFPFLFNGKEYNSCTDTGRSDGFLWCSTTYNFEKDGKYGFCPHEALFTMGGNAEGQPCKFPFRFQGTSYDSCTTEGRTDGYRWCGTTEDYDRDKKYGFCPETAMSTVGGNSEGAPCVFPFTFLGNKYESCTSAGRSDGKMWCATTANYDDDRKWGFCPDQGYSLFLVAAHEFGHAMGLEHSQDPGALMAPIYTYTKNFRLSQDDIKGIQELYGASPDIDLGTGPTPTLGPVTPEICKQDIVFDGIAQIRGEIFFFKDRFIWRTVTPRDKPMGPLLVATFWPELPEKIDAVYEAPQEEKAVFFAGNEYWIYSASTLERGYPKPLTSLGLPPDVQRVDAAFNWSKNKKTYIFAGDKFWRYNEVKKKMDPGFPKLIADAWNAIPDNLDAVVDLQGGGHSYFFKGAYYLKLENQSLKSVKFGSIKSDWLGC
Briefly: Zymography, inhibition of gelatinolytic activity. It counts as biochemical. To be noted: MMP-2 acquired from HT-1080; result determined visually; read-out: concentration at which complete inhibition was achieved.
Text: as §1, §2

Values joined by “and” are separate entries in the source; they are usually repeats but may differ in a detail not shown here. Equal entries are not always repeated.

Regarding `CCN(CC)CCCCCCCCOC(=O)c1cc(OC)c(OC)c(OC)c1` [TMB-8], the “inhibition of the MMP's (in words)” value in experiment [1] is listed as “have shown inhibition of MMP's”.
As for `C[C@H]1c2cccc(O)c2C(=O)C2=C(O)[C@]3(O)C(=O)C(C(N)=O)=C(O)[C@@H](N(C)C)[C@@H]3[C@@H](O)[C@@H]21` [doxycycline], the IC100 in experiment [2] is 50 µM and 24 µg/mL; in experiment [3], 100 µM and 48 µg/mL.
For `O=C(O)CN(CCN(CC(=O)O)CC(=O)O)CC(=O)O` [EDTA], in experiment [1], the “inhibition of the MMP's (in words)” value was “have shown inhibition of MMP's”.
